Assay results published in US20240158446A1, “CYCLIC COMPOUND HAVING SELECTIVE INHIBITORY ACTION ON KRAS OVER HRAS AND NRAS” (CHUGAI SEIYAKU KABUSHIKI KAISHA, priority 2021, published 2024).
Where a SMILES comes first, the peptide text is derived from it. Bridges are numbered along the chain shown (N, C = ends). [ ]: non-standard residue; d: D form. The star is where a group is joined. hPhe(3-Cl-4-CF3) = N[C@@H](CCc1ccc(C(F)(F)F)c(Cl)c1)C(=O)O; NPrPhe(4-CF3) = CCCN[C@@H](Cc1ccc(C(F)(F)F)cc1)C(=O)O; NMeGly(cPent) = CN[C@H](C(=O)O)C1CCCC1; Pro(4S-Me) = C[C@@H]1CN[C@H](C(=O)O)C1; Aze(3S-Me) = C[C@H]1CN[C@@H]1C(=O)O; Gly(cPent) = N[C@H](C(=O)O)C1CCCC1; Hyp = O=C(O)[C@@H]1C[C@@H](O)CN1; NMeD = CN[C@@H](CC(=O)O)C(=O)O; NMeL = CN[C@@H](CC(C)C)C(=O)O; Morpholide = C1CN(*)CCO1; NMeA = CN[C@@H](C)C(=O)O; Ac5c = NC1(C(=O)O)CCCC1; Aze = O=C(O)[C@@H]1CCN1; Ac4c = NC1(C(=O)O)CCC1; Ac3c = NC1(C(=O)O)CC1; NEtG = CCNCC(=O)O; Sar = CNCC(=O)O

target: GDP-bound KRAS wild-type protein (Homo sapiens, UniProt P01116); experiment: Binding to KRAS by surface plasmon resonance (SPR), Single Cycle Kinetics; conditions: SPR Single Cycle Kinetics, GDP-bound KRAS wild-type protein, 1:1 binding model; read-out: KRAS KD
Sequence (P01116 whole entry): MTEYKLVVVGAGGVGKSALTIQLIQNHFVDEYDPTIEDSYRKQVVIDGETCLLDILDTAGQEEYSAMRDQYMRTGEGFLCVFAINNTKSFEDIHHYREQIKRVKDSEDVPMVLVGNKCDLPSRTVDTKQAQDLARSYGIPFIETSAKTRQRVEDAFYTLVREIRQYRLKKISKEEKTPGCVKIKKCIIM

First: CCCN1C(=O)CN(C)C(=O)CN(C)C(=O)[C@H](C2CCCC2)NC(=O)[C@H](CC(C)C)N(C)C(=O)C[C@@H](C(=O)N2CCOCC2)N(C)C(=O)[C@H](C2CCCC2)N(C)C(=O)C2(CCCC2)NC(=O)[C@@H]2CCCN2C(=O)[C@H](CCc2ccc(C(F)(F)F)c(Cl)c2)NC(=O)CN(C)C(=O)[C@@H]1Cc1ccc(C(F)(F)F)cc1 [PP0251] ([NMeL][Gly(cPent)][Sar][Sar][NPrPhe(4-CF3)][Sar][hPhe(3-Cl-4-CF3)]P[Ac5c][NMeGly(cPent)][NMeD]-Morpholide; lactam N-11)
Second: CCCN1C(=O)CN(C)C(=O)CN(CC)C(=O)[C@H]([C@@H](C)CC)NC(=O)[C@H](CC(C)C)N(C)C(=O)C[C@@H](C(=O)N2CCOCC2)N(C)C(=O)[C@H](C2CCCC2)N(C)C(=O)C2(CCCC2)NC(=O)[C@@H]2C[C@H](C)CN2C(=O)[C@H](CCc2ccc(C(F)(F)F)c(Cl)c2)NC(=O)CN(C)C(=O)[C@@H]1Cc1ccc(C(F)(F)F)cc1 [PP0451] ([NMeL]I[NEtG][Sar][NPrPhe(4-CF3)][Sar][hPhe(3-Cl-4-CF3)][Pro(4S-Me)][Ac5c][NMeGly(cPent)][NMeD]-Morpholide; lactam N-11)
The Kd of the first is 3-fold lower: 0.25 nM for the first, 0.75 nM for the second.

Going from `CCCN1C(=O)[C@@H]2CCN2C(=O)C2(CC2)NC(=O)[C@H]([C@@H](C)CC)NC(=O)[C@H](CC(C)C)N(C)C(=O)C[C@@H](C(=O)N2CCOCC2)N(C)C(=O)[C@H](C2CCCC2)N(C)C(=O)C2(CCCC2)NC(=O)[C@@H]2CCCN2C(=O)[C@H](CCc2ccc(C(F)(F)F)c(Cl)c2)NC(=O)CN(C)C(=O)[C@@H]1Cc1ccc(C(F)(F)F)cc1` [PP0276] ([NMeL]I[Ac3c][Aze][NPrPhe(4-CF3)][Sar][hPhe(3-Cl-4-CF3)]P[Ac5c][NMeGly(cPent)][NMeD]-Morpholide; lactam N-11) to `CCCN1C(=O)[C@@H]2CCN2C(=O)[C@@H]2[C@@H](C)CN2C(=O)[C@H]([C@@H](C)CC)NC(=O)[C@H](CC(C)C)N(C)C(=O)C[C@@H](C(=O)N2CCOCC2)N(C)C(=O)[C@H](C2CCCC2)N(C)C(=O)C2(CCCC2)NC(=O)[C@@H]2CCCN2C(=O)[C@H](CCc2ccc(C(F)(F)F)c(Cl)c2)NC(=O)CN(C)C(=O)[C@@H]1Cc1ccc(C(F)(F)F)cc1` [PP0279] ([NMeL]I[Aze(3S-Me)][Aze][NPrPhe(4-CF3)][Sar][hPhe(3-Cl-4-CF3)]P[Ac5c][NMeGly(cPent)][NMeD]-Morpholide; lactam N-11), the Kd falls from 150 nM to 0.36 nM (420-fold). The second binds more tightly here.

First: CCCN1C(=O)[C@@H]2CCN2C(=O)CN(C)C(=O)[C@H]([C@@H](C)CC)NC(=O)[C@H](CC(C)C)N(C)C(=O)C[C@@H](C(=O)N(C)C)NC(=O)[C@H](C2CCCC2)N(C)C(=O)C2(CCCC2)NC(=O)[C@@H]2CCCN2C(=O)[C@H](CCc2ccc(C(F)(F)F)c(Cl)c2)NC(=O)CN(C)C(=O)[C@@H]1Cc1ccc(C(F)(F)F)cc1 [PP0385] ([NMeL]I[Sar][Aze][NPrPhe(4-CF3)][Sar][hPhe(3-Cl-4-CF3)]P[Ac5c][NMeGly(cPent)]D-NMe2; lactam N-11)
Second: CCCN1C(=O)[C@@H]2CCN2C(=O)[C@H](C)N(C)C(=O)[C@H]([C@@H](C)CC)NC(=O)[C@H](CC(C)C)N(C)C(=O)C[C@@H](C(=O)N(C)C)N(C)C(=O)[C@H](C2CCCC2)N(C)C(=O)C2(CCC2)NC(=O)[C@@H]2C[C@@H](OCC)CN2C(=O)[C@H](CCc2ccc(C(F)(F)F)c(Cl)c2)NC(=O)CN(C)C(=O)[C@@H]1Cc1ccc(C(F)(F)F)cc1 [PP0439] ([NMeL]I[NMeA][Aze][NPrPhe(4-CF3)][Sar][hPhe(3-Cl-4-CF3)][Hyp](Et)[Ac4c][NMeGly(cPent)][NMeD]-NMe2; lactam N-11)
The Kd of the first is 18-fold higher: 0.37 nM for the first, 0.021 nM for the second. The second binds more tightly here.

Compared with `CCCN1C(=O)[C@@H]2CCN2C(=O)[C@H](C)N(C)C(=O)[C@H]([C@@H](C)CC)NC(=O)[C@H](CC(C)C)N(C)C(=O)C[C@@H](C(=O)N2CCOCC2)N(C)C(=O)[C@H](C2CCCC2)N(C)C(=O)C2(CCCC2)NC(=O)[C@@H]2C[C@H](C)CN2C(=O)[C@H](CCc2ccc(C(F)(F)F)c(Cl)c2)NC(=O)CN(C)C(=O)[C@@H]1Cc1ccc(C(F)(F)F)cc1` [PP0455] ([NMeL]I[NMeA][Aze][NPrPhe(4-CF3)][Sar][hPhe(3-Cl-4-CF3)][Pro(4S-Me)][Ac5c][NMeGly(cPent)][NMeD]-Morpholide; lactam N-11), `CC[C@H](C)[C@@H]1NC(=O)[C@H](CC(C)C)N(C)C(=O)C[C@@H](C(=O)N2CCOCC2)N(C)C(=O)[C@H](C2CCCC2)NC(=O)C2(CCCC2)NC(=O)[C@@H]2CCCN2C(=O)[C@H](CCc2cc(F)c(C(F)(F)F)c(F)c2)NC(=O)CN(C)C(=O)[C@H](Cc2ccc(C(F)(F)F)cc2)N2CCCCC[C@@H](C2=O)N(C)C(=O)CN(C)C1=O` [PP0478] is 2200-fold higher in Kd: 0.18 nM for the first, 400 nM for the second. The first binds more tightly here.

`CCO[C@@H]1C[C@H]2C(=O)NC3(CC(C)(C)C3)C(=O)N(C)[C@@H](C(CC)CC)C(=O)N(C)[C@H](C(=O)N3CCCCC3)CC(=O)N(C)[C@H]3CCC/C=C/c4ccc(cc4)C[C@@H](C(=O)N(C)CC(=O)N[C@@H](CCc4cc(F)c(C(F)(F)F)c(F)c4)C(=O)N2C1)N1CC/C=C\C[C@@H](C1=O)N(C)C(=O)CN(C)C(=O)[C@H]([C@@H](C)CC)NC3=O` [PP2952] was tested, and the Kd was 0.79 nM.

same assay, conditions: SPR, Single Cycle Kinetics, 1:1 binding model; GDP-bound KRAS wild-type protein; read-out: KRAS KD

First: CCO[C@@H]1C[C@H]2C(=O)NC3(CCC3)C(=O)N(C)[C@@H](C(CC)CC)C(=O)N(C)[C@H](C)CC(=O)N(C)[C@@H](CC3CCCC3)C(=O)N[C@@H]([C@@H](C)CC)C(=O)N(C)CC(=O)N(C)[C@H]3C/C=C\CCN(C3=O)[C@@H](Cc3ccc(F)cc3)C(=O)N(C)CC(=O)N[C@@H](CCc3cc(F)c(C(F)(F)F)c(F)c3)C(=O)N2C1 [PP1523]
Second: CCO[C@@H]1C[C@H]2C(=O)NC3(CCC3)C(=O)N(C)[C@@H](C(CC)CC)C(=O)N3CCC[C@@H]3CC(=O)N(C)[C@@H](CC)C(=O)N[C@@H]([C@@H](C)CC)C(=O)N(C)CC(=O)N(C)[C@H]3C/C=C\CCN(C3=O)[C@@H](Cc3ccc(C(F)(F)F)cc3)C(=O)N(C)CC(=O)N[C@@H](CCc3cc(F)c(C(F)(F)F)c(F)c3)C(=O)N2C1 [PP1607]
The Kd of the first is 7.2-fold higher: 4.1 nM for the first, 0.57 nM for the second. The second binds more tightly here.

same assay, conditions: SPR, Single Cycle Kinetics, GDP-bound KRAS wild-type protein; read-out: KRAS KD

Going from `CCO[C@@H]1C[C@H]2C(=O)NC3(CC(C)(C)C3)C(=O)N(C)[C@@H](C(CC)CC)C(=O)N(C)[C@H](C(=O)N(C)C)CC(=O)N(C)[C@H]3CCCC/C=C/c4ccc(cc4)C[C@@H](C(=O)N(C)CC(=O)N[C@@H](CCc4cc(F)c(C(F)(F)F)c(F)c4)C(=O)N2C1)N1CC/C=C\C[C@@H](C1=O)N(C)C(=O)CN(C)C(=O)[C@H]([C@@H](C)CC)NC3=O` [PP3044] to `CCO[C@@H]1C[C@H]2C(=O)NC3(CCC3)C(=O)N(C)[C@@H](C(CC)CC)C(=O)N(C)[C@H](C(=O)N3CCCCC3)CC(=O)N(C)[C@H]3CCCCC/C=C/c4ccc(cc4)C[C@@H](C(=O)N(C)CC(=O)N[C@@H](CCc4ccc(Cl)c(Cl)c4)C(=O)N2C1)N1CC/C=C\C[C@@H](C1=O)N(C)C(=O)CN(C)C(=O)[C@H]([C@@H](C)CC)NC3=O` [PP3051], the Kd rises from 0.052 nM to 0.75 nM (14-fold).

`CCO[C@@H]1C[C@H]2C(=O)NC3(CCC3)C(=O)N(C)[C@@H](C3CCCC3)C(=O)N(C)[C@H](C(=O)N3CCCC3)CC(=O)N(C)[C@H]3CCCCC/C=C/c4ccc(cc4)C[C@@H](C(=O)N(C)CC(=O)N[C@@H](CCc4ccc(Cl)c(Cl)c4)C(=O)N2C1)N1CC/C=C\C[C@@H](C1=O)N(C)C(=O)CN(C)C(=O)[C@H]([C@@H](C)CC)NC3=O` [PP3049] showed a Kd of 0.2 nM.

target: GDP-bound HRAS wild-type protein (Homo sapiens, UniProt P01112); experiment: Binding to HRAS by surface plasmon resonance (SPR), Single Cycle Kinetics; conditions: SPR; GDP-bound HRAS wild-type protein vs GDP-bound KRAS wild-type protein; KD ratio class
Sequence (P01112 whole entry): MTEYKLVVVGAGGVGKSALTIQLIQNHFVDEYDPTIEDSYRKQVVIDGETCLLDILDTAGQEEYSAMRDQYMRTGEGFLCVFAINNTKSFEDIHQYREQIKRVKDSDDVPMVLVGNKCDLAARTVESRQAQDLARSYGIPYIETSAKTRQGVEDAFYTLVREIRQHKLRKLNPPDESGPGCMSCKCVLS

In the case of `CCO[C@@H]1C[C@H]2C(=O)NC3(CCC3)C(=O)N(C)[C@@H](C(CC)CC)C(=O)N3CCC[C@@H]3CC(=O)N(C)[C@@H](CC)C(=O)N[C@@H]([C@@H](C)CC)C(=O)N(C)CC(=O)N(C)[C@H]3C/C=C\CCN(C3=O)[C@@H](Cc3ccc(C(F)(F)F)cc3)C(=O)N(C)CC(=O)N[C@@H](CCc3cc(F)c(C(F)(F)F)c(F)c3)C(=O)N2C1` [PP1607], the “HRAS/KRAS (ratio of KD value for HRAS to KD value for KRAS)” value is reported as “A (a compound having 10 or more and less than 20 is denoted as A)”.
